Test results published in patent publication US20250353891A1 (MEDIMMUNE LIMITED, priority 2022, published 2025).
Starred links: 1 amine or outer side, 2 acyl side, 3 side chain; linkers in the order of their positions; H or OH if unused. Non-standard residues stand in square brackets, D forms with d. Residues, ends and D or L forms follow the SMILES beside them. Groups on a side chain read outwards from the residue. *: point of attachment. C20 diacid = O=C(O)CCCCCCCCCCCCCCCCCCC(=O)*; C18 diacid = O=C(O)CCCCCCCCCCCCCCCCC(=O)*; γGlu = O=C(O)[C@H](CCC(=O)[*:2])N[*:1]; αMeF = C[C@](N)(Cc1ccccc1)C(=O)O; AEEA = NCCOCCOCC(=O)O; Aib = CC(C)(N)C(=O)O

Tests used:
[1] = molecular target: human glucagon receptor (hGCGR) (Homo sapiens, UniProt P47871); experiment: cAMP production (HTRF) in CHO cells expressing hGCGR; assay type: cell-based; set-up: expressed in transfected cells; conditions: Table 6, peptides modified at position 17; cAMP in CHO hGCGR cells; geometric mean; read-out: hGluc-R EC50
human glucagon receptor (hGCGR), sequence (P47871 26-477): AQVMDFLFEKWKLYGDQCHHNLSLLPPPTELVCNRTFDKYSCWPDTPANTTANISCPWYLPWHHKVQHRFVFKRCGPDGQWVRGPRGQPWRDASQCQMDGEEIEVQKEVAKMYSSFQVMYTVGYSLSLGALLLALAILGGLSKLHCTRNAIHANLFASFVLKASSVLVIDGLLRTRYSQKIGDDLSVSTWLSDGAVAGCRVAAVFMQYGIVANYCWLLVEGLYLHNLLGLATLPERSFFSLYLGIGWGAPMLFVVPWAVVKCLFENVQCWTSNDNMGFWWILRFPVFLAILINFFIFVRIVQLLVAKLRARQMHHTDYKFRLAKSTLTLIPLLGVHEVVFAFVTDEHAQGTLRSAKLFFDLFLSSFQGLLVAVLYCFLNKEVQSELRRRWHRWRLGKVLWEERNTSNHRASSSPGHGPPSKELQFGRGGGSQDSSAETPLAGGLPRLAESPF
Outline: (§1)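 Read-out: HTRF cAMP (anti-cAMP cryptate donor, cAMP-d2 acceptor in conjugate/lysis buffer), converted to % Delta F and fitted by 4-parameter logistic for EC50. Cell densities were 1×10^5 cells/mL (hGLP-1R) or 2×10^5 cells/mL (hGCGR). Stimulation lasted 30 min at room temperature.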

[2] = molecular target: human GLP-1 receptor (hGLP-1R) (Homo sapiens, UniProt P43220); experiment: cAMP production (HTRF) in CHO cells expressing hGLP-1R; assay type: cell-based; set-up: expressed in transfected cells; conditions: for EC50: Table 6, peptides modified at position 17, cAMP in CHO hGLP-1R cells, geometric mean, read-out: hGLP-1R EC50; for % Relative Potency Ratio: Table 6, % GLP-1R activity relative to GLP-1 / % GlucR activity relative to glucagon
human GLP-1 receptor (hGLP-1R), sequence (P43220 24-463): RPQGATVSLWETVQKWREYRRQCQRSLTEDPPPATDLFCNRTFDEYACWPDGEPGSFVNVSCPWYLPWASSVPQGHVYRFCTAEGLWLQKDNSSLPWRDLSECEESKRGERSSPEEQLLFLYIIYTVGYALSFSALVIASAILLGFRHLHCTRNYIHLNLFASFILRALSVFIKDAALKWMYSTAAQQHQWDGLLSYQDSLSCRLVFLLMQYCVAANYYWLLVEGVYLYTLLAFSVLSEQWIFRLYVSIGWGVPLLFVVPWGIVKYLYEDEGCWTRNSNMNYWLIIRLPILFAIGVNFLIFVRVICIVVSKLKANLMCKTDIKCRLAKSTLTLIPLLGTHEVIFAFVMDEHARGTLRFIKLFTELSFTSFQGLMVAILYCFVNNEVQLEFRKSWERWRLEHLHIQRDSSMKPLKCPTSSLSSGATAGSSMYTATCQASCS
Outline: as §1

CC(C)C[C@H](NC(=O)[C@H](CC(C)C)NC(=O)C(C)(C)NC(=O)[C@H](CCC(N)=O)NC(=O)[C@@H](NC(=O)[C@H](Cc1ccccc1)NC(=O)[C@H](CC(=O)O)NC(=O)[C@H](CCCNC(=N)N)NC(=O)[C@H](C)NC(=O)[C@H](CCCNC(=N)N)NC(=O)[C@H](CCCCNC(=O)COCCOCCNC(=O)COCCOCCNC(=O)CC[C@H](NC(=O)CCCCCCCCCCCCCCCCC(=O)O)C(=O)O)NC(=O)[C@@H](NC(=O)[C@H](CC(=O)O)NC(=O)[C@H](CC(C)C)NC(=O)[C@](C)(Cc1ccccc1)NC(=O)[C@H](CCCCN)NC(=O)[C@H](CO)NC(=O)[C@@H](NC(=O)[C@H](CC(=O)O)NC(=O)[C@H](CO)NC(=O)[C@@H](NC(=O)[C@H](Cc1ccccc1)NC(=O)[C@@H](NC(=O)CNC(=O)[C@H](CCC(N)=O)NC(=O)C(C)(C)NC(=O)[C@@H](N)Cc1c[nH]cn1)[C@@H](C)O)[C@@H](C)O)C(C)C)[C@@H](C)O)C(C)C)C(=O)N[C@@H](CCC(=O)O)C(=O)NC(C)(C)C(=O)NCC(=O)O [Peptide 435] (H-H[Aib]QGTFTSDVSK[αMeF]LDTK([AEEA-AEEA-γGlu-C18 diacid])RARDFVQ[Aib]LLE[Aib]G-OH; N-terminus assumed)
EC50 [1]: 0.24 nM
EC50 [2]: 0.0227 nM
% Relative Potency Ratio [2]: 21.0

CC(C)C[C@H](NC(=O)[C@H](Cc1c[nH]c2ccccc12)NC(=O)[C@H](CCCNC(=N)N)NC(=O)[C@@H](NC(=O)[C@H](Cc1ccccc1)NC(=O)[C@H](CC(=O)O)NC(=O)[C@H](CCC(N)=O)NC(=O)[C@H](C)NC(=O)[C@H](CCCNC(=N)N)NC(=O)[C@H](CCCCNC(=O)COCCOCCNC(=O)COCCOCCNC(=O)CC[C@H](NC(=O)CCCCCCCCCCCCCCCCC(=O)O)C(=O)O)NC(=O)[C@H](CCCNC(=N)N)NC(=O)[C@H](CC(=O)O)NC(=O)[C@H](CC(C)C)NC(=O)[C@](C)(Cc1ccccc1)NC(=O)[C@H](CCCCN)NC(=O)[C@H](CO)NC(=O)[C@@H](NC(=O)[C@H](CC(=O)O)NC(=O)[C@H](CO)NC(=O)[C@@H](NC(=O)[C@H](Cc1ccccc1)NC(=O)[C@@H](NC(=O)CNC(=O)[C@H](CCC(N)=O)NC(=O)C(C)(C)NC(=O)[C@@H](N)Cc1c[nH]cn1)[C@@H](C)O)[C@@H](C)O)C(C)C)C(C)C)C(=O)N[C@H](C(=O)NC(C)(C)C(=O)N[C@@H](CCC(=O)O)C(N)=O)C(C)C [Peptide 436] (H-H[Aib]QGTFTSDVSK[αMeF]LDRK([AEEA-AEEA-γGlu-C18 diacid])RAQDFVRWLV[Aib]E-NH2; N-terminus assumed)
EC50 [1]: 0.0688 nM
EC50 [2]: 0.00743 nM
% Relative Potency Ratio [2]: 18.3

CC(C)C[C@H](NC(=O)[C@H](Cc1c[nH]c2ccccc12)NC(=O)[C@H](CCCNC(=N)N)NC(=O)[C@@H](NC(=O)[C@H](Cc1ccccc1)NC(=O)[C@H](CC(=O)O)NC(=O)[C@H](CCC(N)=O)NC(=O)[C@H](C)NC(=O)[C@H](CCCNC(=N)N)NC(=O)[C@H](CCCCNC(=O)COCCOCCNC(=O)COCCOCCNC(=O)CC[C@H](NC(=O)CCCCCCCCCCCCCCCCCCC(=O)O)C(=O)O)NC(=O)[C@H](CCCNC(=N)N)NC(=O)[C@H](CC(=O)O)NC(=O)[C@H](CC(C)C)NC(=O)[C@](C)(Cc1ccccc1)NC(=O)[C@H](CCCCN)NC(=O)[C@H](CO)NC(=O)[C@@H](NC(=O)[C@H](CC(=O)O)NC(=O)[C@H](CO)NC(=O)[C@@H](NC(=O)[C@H](Cc1ccccc1)NC(=O)[C@@H](NC(=O)CNC(=O)[C@H](CCC(N)=O)NC(=O)C(C)(C)NC(=O)[C@@H](N)Cc1c[nH]cn1)[C@@H](C)O)[C@@H](C)O)C(C)C)C(C)C)C(=O)N[C@H](C(=O)NC(C)(C)C(=O)N[C@@H](CCC(=O)O)C(N)=O)C(C)C [Peptide 437] (H-H[Aib]QGTFTSDVSK[αMeF]LDRK([AEEA-AEEA-γGlu-C20 diacid])RAQDFVRWLV[Aib]E-NH2)
EC50 [1]: 0.0969 nM
EC50 [2]: 0.0269 nM
% Relative Potency Ratio [2]: 7.1

CC(C)C[C@H](NC(=O)[C@H](Cc1c[nH]c2ccccc12)NC(=O)[C@H](CCCNC(=N)N)NC(=O)[C@@H](NC(=O)[C@H](Cc1ccccc1)NC(=O)[C@H](CC(=O)O)NC(=O)[C@H](CCC(N)=O)NC(=O)[C@H](C)NC(=O)[C@H](CCCNC(=N)N)NC(=O)[C@H](CCCCNC(=O)COCCOCCNC(=O)COCCOCCNC(=O)CC[C@H](NC(=O)CCCCCCCCCCCCCCCCC(=O)O)C(=O)O)NC(=O)[C@H](CCCCN)NC(=O)[C@H](CC(=O)O)NC(=O)[C@H](CC(C)C)NC(=O)[C@](C)(Cc1ccccc1)NC(=O)[C@H](CCCCN)NC(=O)[C@H](CO)NC(=O)[C@@H](NC(=O)[C@H](CC(=O)O)NC(=O)[C@H](CO)NC(=O)[C@@H](NC(=O)[C@H](Cc1ccccc1)NC(=O)[C@@H](NC(=O)CNC(=O)[C@H](CCC(N)=O)NC(=O)C(C)(C)NC(=O)[C@@H](N)Cc1c[nH]cn1)[C@@H](C)O)[C@@H](C)O)C(C)C)C(C)C)C(=O)N[C@@H](CCC(=O)O)C(=O)N[C@@H](C)C(=O)NC(C)(C)C(=O)NCC(N)=O [Peptide 438] (H-H[Aib]QGTFTSDVSK[αMeF]LDKK([AEEA-AEEA-γGlu-C18 diacid])RAQDFVRWLEA[Aib]G-NH2; N-terminus assumed)
EC50 [1]: 0.0689 nM
EC50 [2]: 0.0179 nM
% Relative Potency Ratio [2]: 7.6

CC(C)C[C@H](NC(=O)[C@H](Cc1c[nH]c2ccccc12)NC(=O)[C@H](CCCNC(=N)N)NC(=O)[C@@H](NC(=O)[C@H](Cc1ccccc1)NC(=O)[C@H](CC(=O)O)NC(=O)[C@H](CCC(N)=O)NC(=O)[C@H](C)NC(=O)[C@H](CCCNC(=N)N)NC(=O)[C@H](CCCCNC(=O)COCCOCCNC(=O)COCCOCCNC(=O)CC[C@H](NC(=O)CCCCCCCCCCCCCCCCC(=O)O)C(=O)O)NC(=O)[C@H](CCCNC(=N)N)NC(=O)[C@H](CC(=O)O)NC(=O)[C@H](CC(C)C)NC(=O)[C@](C)(Cc1ccccc1)NC(=O)[C@H](CCCCN)NC(=O)[C@H](CO)NC(=O)[C@@H](NC(=O)[C@H](CC(=O)O)NC(=O)[C@H](CO)NC(=O)[C@@H](NC(=O)[C@H](Cc1ccccc1)NC(=O)[C@@H](NC(=O)CNC(=O)[C@H](CCC(N)=O)NC(=O)C(C)(C)NC(=O)[C@@H](N)Cc1c[nH]cn1)[C@@H](C)O)[C@@H](C)O)C(C)C)C(C)C)C(=O)N[C@@H](CC(C)C)C(=O)NC(C)(C)C(=O)N[C@@H](CCC(=O)O)C(N)=O [Peptide 439] (H-H[Aib]QGTFTSDVSK[αMeF]LDRK([AEEA-AEEA-γGlu-C18 diacid])RAQDFVRWLL[Aib]E-NH2; N-terminus assumed)
EC50 [1]: 0.0577 nM
EC50 [2]: 0.0306 nM
% Relative Potency Ratio [2]: 3.7

CC(C)C[C@H](NC(=O)[C@H](Cc1c[nH]c2ccccc12)NC(=O)[C@H](CCCNC(=N)N)NC(=O)[C@@H](NC(=O)[C@H](Cc1ccccc1)NC(=O)[C@H](CC(=O)O)NC(=O)[C@H](CCCNC(=N)N)NC(=O)[C@H](C)NC(=O)[C@H](CCCNC(=N)N)NC(=O)[C@H](CCCCNC(=O)COCCOCCNC(=O)COCCOCCNC(=O)CC[C@H](NC(=O)CCCCCCCCCCCCCCCCCCC(=O)O)C(=O)O)NC(=O)[C@H](CCCCN)NC(=O)[C@H](CC(=O)O)NC(=O)[C@H](CC(C)C)NC(=O)[C@](C)(Cc1ccccc1)NC(=O)[C@H](CCCCN)NC(=O)[C@H](CO)NC(=O)[C@@H](NC(=O)[C@H](CC(=O)O)NC(=O)[C@H](CO)NC(=O)[C@@H](NC(=O)[C@H](Cc1ccccc1)NC(=O)[C@@H](NC(=O)CNC(=O)[C@H](CCC(N)=O)NC(=O)C(C)(C)NC(=O)[C@@H](N)Cc1c[nH]cn1)[C@@H](C)O)[C@@H](C)O)C(C)C)C(C)C)C(=O)N[C@@H](CC(C)C)C(=O)NC(C)(C)C(=O)N[C@@H](CCC(=O)O)C(=O)O [Peptide 440] (H-H[Aib]QGTFTSDVSK[αMeF]LDKK([AEEA-AEEA-γGlu-C20 diacid])RARDFVRWLL[Aib]E-OH; N-terminus assumed)
EC50 [1]: 0.081 nM
EC50 [2]: 0.154 nM
% Relative Potency Ratio [2]: 1.0
